Measurements from US20060269601A1, “Oral modified release formulations containing 8-prenylnaringenin for continuous estrogen support” (priority 2005, published 2006).

Columns and labels:
[1] = Clinical Phase Ia study: drug serum levels after single oral dose of 8-prenylnaringenin; format: in vivo, human (postmenopausal women)
Source text: The pharmacokinetic profile of 8-prenylnaringenin is characterized by a complete oral absorption, a low degree of metabolization (less than 60% of dose) and a high pre-systemic elimination (first-liver-pass excretion; about 55% of dose). This high and unexpected pre-systemic elimination leads to an accumulation of substantial amounts in the bile fluid from which they are secreted into the duodenum when gastric signaling occurs with food intake. The 8-prenylnaringenin is then absorbed again and enters systemic circulation. Data were taken from the clinical Phase Ia study and represent two volunteers in the lowest dose group (50 mg 8-prenylnaringenin).
Taking the total area under the curve as a measure of 8-prenylnaringenin systemic availability, the percentage of the area under the second peak (generated by reabsorption of the pre-systemically eliminated and then biliary secreted amounts) can be used to estimate those portions of the doses that undergo pre-systemic elimination after oral dosing. The average figure was 54±20% for the six women in the study.
Re-increases in drug serum levels show reabsorption of dose parts collected in the bile fluid and subsequently secreted triggered by intake of the midday meal.
8-prenylnaringenin is analyzed by a specifically developed radio-immunoassay. A 4′-O hapten ({4-[5,7-Dihydroxy-8-(3-methyl-but-2-enyl)-4-oxo-chroman-2-yl]-phenoxy}-acetic acid) was synthesized starting from racemic naringenin and coupled to cationized bovine serum albumin (cBSA). This antigen was mixed with Freund's adjuvants and injected into rabbits. The antiserum resulting after several boosters was isolated as an IgG fraction and used in a final dilution of 1:100.000. A tritiated tracer was synthesized by preparation of the 3′,5′-dibromo derivative of 8-prenylnaringenin, again starting from racemic naringenin. Both bromine atoms were exchanged to ^3H in a final, palladium-catalyzed step leading to the tritiated tracer of a specific radioactivity of 2.22 GBq/mg.
Biological matrices, i.e. blood plasma, blood serum, or urine, are either directly extracted with tert-butyl methyl ether (tert-BME) or after enzymatic de-conjugation by means of glucuronidase/arylsulfatase (Helix pomatia). Organic layers are separated, evaporated and the residues taken up in assay buffer. Extract residues or dilutions of standard 8-prenylnaringenin solutions are then mixed with antiserum and tracer and kept at 4° C. overnight. Dextran-coated charcoal is added to separate bound and free 8-prenylnaringenin and bound radioactivity is quantified with a liquid scintillation counter after addition of a scintillation cocktail.

[2] = pH-dependent solubility of 8-prenylnaringenin; format: physicochemical; settings: dependence on pH
Source text: The solid oral modified release formulations of this invention show a pH-independent drug release in vitro. This is important as the pH varies considerably in the gastro-intestinal tract and continuous release should be achieved independent of the pH. However, the solubility of 8-prenylnaringenin is pH-dependent. […] The low acid solubility property of 8-prenylnaringenin results in vitro in slow drug dissolution at pH 1, whereas the dissolution is fast at higher pH-values such as pH 6.8. The resulting dissolution profiles are different at different pH-values. This problem is solved by the solid oral modified release formulation of this invention.

[3] = In vitro release/dissolution from mini-matrix tablets, basket apparatus USP XXV; format: physicochemical
Experimental: Measurement of the active ingredient release from mini-matrix tablets is carried out according to a one-compartment method (basket apparatus), as described in U.S. Pharmacopeia USP XXV. The release of 8-prenylnaringenin was examined in phosphate buffer solution, pH 6.8 (composition, see USP XXV) or in 0.1 N HCl. Ten percent (w/w) hydroxypropyl-β-cyclodextrine were added in order to achieve sink conditions and primarily control the drug release by the dosage form.

[4] = system: uterus; settings: compared with estradiol at equivalent bone protective doses; cited from earlier work

- percentage of the area under the second peak of total area under the curve (portion of dose undergoing pre-systemic elimination) ([1]; average for the six women in the study, after oral dosing): 54±20%
- degree of metabolization ([1]; oral dosing, human): less than 60 % of dose
- oral absorption ([1]; oral dosing, human): complete
- pre-systemic elimination (first-liver-pass excretion) ([1]; oral dosing, human): about 55 % of dose
- solubility [2]: pH-dependent
- drug dissolution in vitro ([3]; higher pH-values such as pH 6.8): fast
- drug dissolution in vitro ([3]; pH 1): slow
Structure (SMILES): CC(C)=CCc1c(O)cc(O)c2c1OC(c1ccc(O)cc1)CC2=O (centres unmarked) [8-prenylnaringenin, 5,7-Dihydroxy-2-(4-hydroxyphenyl)-8-(3-methylbut-2-enyl)-chroman-4-on]
- activity on the uterus [4]: much lower activity on the uterus than estradiol
